Reference: patent publication US20260274828A1, “BROAD SPECTRUM ANTIFUNGAL KETO-ALKYL-PYRIDINIUM COMPOUNDS” (priority 2023, published 2026)

What was measured:
red blood cells = test: Red blood cell lysis assay; assay type: cell-based, sheep; conditions: 2 h, normalized to max lysis by triton-x
Method: Hemolysis assays were performed with defibrinated sheep's blood (Lampire, Cat #7239001). Blood was washed three times with PBS then resuspended to about 50% hematocrit in PBS. A two-fold dilution series of the compounds in 200 μL PBS with equal DMSO concentration across the series, then red blood cells were added with a final concentration of 2% hematocrit. Cells were incubated at RT for 2 hours in a v-bottom microtiter plate, then plates were spun down and supernatant was transferred to a flat bottom microtiter plate for absorbance measurement at 570 nm. Compounds were tested in technical triplicate in at least two independent assays performed on different days.

C. albicans SC5314 = test: Rat model of Candida albicans vascular catheter infection; assay type: in vivo
Method: C. albicans biofilm growth during infection of implanted medical devices was measured using an external jugular-vein, rat-catheter infection model (Nett et al., 2012). Briefly, a 1×10^6 cells/ml inoculum for each strain or strain combination was allowed to grow on an internal jugular catheter placed in a pathogen-free female rat (16-week old, 400 g) for 24 hours. After this period, the catheter volumes were removed and the catheters were flushed with 0.9% NaCl. The biofilms were dislodged by sonication and vortexing. Viable cell counts were determined by dilution plating. Three replicates were performed for each strain.
After a 24 hours biofilm formation phase, the devices were removed, sectioned to expose the intraluminal surface, and processed for SEM imaging. Briefly, one milliliter fixative (4% formaldehyde and 1% glutaraldehyde in PBS) was added to each catheter tube and tubes were fixed at 4° C. overnight. Catheters were then washed with PBS prior to incubation in 1% OsO4 for 30 minutes. Samples were then serially dehydrated in ethanol (30-100%). Critical point drying was used to completely dehydrate the samples prior to palladium-gold coating. Samples were imaged on a SEM LEO 1530, with Adobe Photoshop 2022 (v. 23.2.2) used for image compilation.
One potential approach to managing central venous catheter infections is to treat the lumen of the catheter with an anti-infective solution that is locked within the catheter and not introduced into the patient (Chandra et al., 2018). This strategy is most often applied to catheters infected with bacteria but has been proposed for fungal infections as well (Pappas et al., 2016; Mermel et al., 2009). To test the efficacy of KAPs in this setting, a rat model of C. albicans venous catheter infection was employed (Nett et al., 2023). The catheter was infected with C. albicans SC5314 and, on post-infection day 1, treated with A (8 μg/mL solution within catheter) or vehicle. After 24 hours, the catheter was removed and processed for fungal burden and scanning electron microscopy. […]

[1] = tested on: C. albicans SC5314 biofilms; test: Biofilm phase antifungal activity assay (XTT reduction); assay type: cell-based, Candida albicans
Method: These assays were performed as previously described (Mao et al., 2020; Ramage et al., 2001). C. albicans and C. auris, overnight cultures were washed in sterile PBS and adjusted to 1×10^6 CFU/mL in RPMI+MOPS pH 7. 100 μL cells were added to each well and incubated at 37° C. for 24 hours. A two-fold dilution series of the compounds was prepared in RPMI+MOPS with equal vehicle concentrations. Media was removed and biofilms were gently washed with PBS, then 200 μL of each drug dilution was added to wells and plates were incubated at 37° C. for an additional 24 hours. Media was removed and biofilms were gently washed with PBS, then 100 μL of XTT solution (0.83 mg/mL XTT sodium salt [Sigma, Cat #X4626]+32 μg/mL PMS [Sigma, Cat #P9625] in PBS) was added to each well. Plates were incubated at 37° C. for 30 minutes, then the absorbance was measured at 490 nm.
The metabolic activity of the biofilms was then assayed using the standard XXT reduction assay (Ramage et al., 2001). […] The biofilm activity of compound A was reduced by 4-fold relative to planktonic growth (MIC 4 μg/mL, Table 2).

HepG2 cells = test: Mammalian cell culture toxicity assay (LDH release and XTT); assay type: cell-based, human
Method: HepG2 cells (ATCC, #) were maintained and cultured in HepG2 media (DMEM (Gibco, Cat #11965-092) with 5% FBS, 20 mM Glutamine, and Penicillin/Streptomycin) at 37° C. with 5% CO2. Cells were seeded in 96-well plates at a density of 1.25×10^4 cells/well and incubated overnight at 37° C. with 5% CO2, then media was removed and replaced with media containing a two-fold dilution series of compounds with equal DMSO concentrations across all wells including no compound controls. Cells were incubated for an additional 24 hours. Supernatant was removed and used to quantify lactate dehydrogenase release using the CyQuant LDH assay kit (Invitrogen, Cat #C20300) following the manufacturer's directions. LDH signal was normalized to a max lysis control. The remaining cells were then used to quantify cellular metabolism by XTT. Briefly, cells were washed, then 0.9 mg/mL XTT (Sigma, CAT #X4626)+320 μg/mL PMS ([…] methosulfate; Sigma, Cat #P9625) in HepG2 media was added to each well. Plates were incubated at 37° C., with 5% CO2 for 2 hours, then absorbance was measured at 490 nm.

C. albicans = test: Checkerboard assay with clinical antifungals (FICI); assay type: cell-based, Candida albicans; conditions: with fluconazole
Method: To determine if compounds interacted with clinically used antifungal drugs, checkerboard assays were performed and fractional inhibitory concentration indices were determined. […] The FICI for compound B and fluconazole is 8.25 due to the 8-fold increase in fluconazole concentration in the combination; however, the concentration of compound B at FIC is reduced by 4-fold relative to compound B as a single agent (Table 3).

[2] = 8 μg/mL solution within catheter, 24 hours

Nc1cc[n+](CC(=O)c2ccc3c(c2)OC(c2ccccc2)(c2ccccc2)O3)cc1.[Cl-] [Compound A]
red blood cell lysis LD50 (red blood cells): 26.9 µg/mL | extent of remaining biofilm (scanning electron microscopy) (C. albicans SC5314; [2]): dramatic reduction | reduction in fungal burden relative to vehicle-treated catheters (C. albicans SC5314; [2]): > 1 log10 | fungal burden of the catheter (C. albicans SC5314; 8 μg/mL, 24 hr): significantly reduced | IC50 ([1]; Candida albicans, SC5314, established 24 h biofilm, treated 24 h, XTT, read-out: biofilm metabolic activity IC50): 18.4 µg/mL | reduction of biofilm activity relative to planktonic growth ([1]; IC50 versus planktonic MIC): 4 fold | LD50, cell lysis assay (HepG2 cells; HepG2, LDH release, 24 h): 9 µg/mL | LD50, metabolic activity assay (HepG2 cells; HepG2, XTT, 24 h): 20 µg/mL | LD50, toxicity against human cell lines (HepG2 cells; readout not given): 9 µg/mL | interaction with clinical antifungal (C. albicans): antagonistic
